Data: patent US9476050B2, “Combination therapy” (TURUN YLIOPISTO, priority 2011, dated 2016)
*: point of attachment. Cbz = O=C(OCc1ccccc1)*; CH2F = FC*

Experiments:
Assay type in all cases: cell-based, human
T98G glioblastoma cells = experiment: Apoptosis assay by sub-G0/G1 fraction estimation (apoptotic nuclear fragmentation, PI staining, FACS); settings: for Potentiation % (apoptotic nuclear fragmentation): T98G transfected with PME-1 specific dsRNA; for level of apoptosis in PME-1 depleted cells: PME-1 siRNA 48 hrs, then drug 24 hrs; for sensitization to STS mediated apoptosis: siRNA or chemical PP2A activator followed by STS 24 hrs; for reversal of PME-1 siRNA and STS mediated apoptosis: agent added to, or siRNA co-transfected with, PME-1 siRNA plus STS
Protocol: The percentage of the sub-G0/G1 fraction containing fragmented nuclei stained with Propidium iodide (P1) was taken as a measure of apoptotic cells. 3.5-4×10^4 cells were plated in 24-well plates, transfected with siRNA for 48 hrs, and then treated with indicated concentration of test compounds in fresh media. After 24 hrs of treatment, both floating and adherent cells were harvested by centrifugation. Cell pellets were resuspended in 400 μl of hypotonic PI buffer, containing 40 mM Tri-sodium citrate (Merck), 0.3% Triton X-100 (Sigma-Aldrich) and 50 μg/ml Propidium iodide (Sigma-Aldrich) in PBS, and incubated at room temperature for 10 minutes in dark. The flow cytometric analysis of PI stained nuclei was performed and the recorded data was analyzed using a FACScan flow cytometer and software (Becton Dickinson) respectively.
In experiments using pan-caspase inhibitor, cells were kept in growth media containing 30 μM Z-VAD-FMK starting from 18 hrs after transfection till the PI staining. For treatment with PP2A activators FTY720, Sodium Selenate and Xylulose-5-phosphate, cells were kept in respective drugs throughout the experiment starting from 24 hrs after transfection. PP2A inhibitor, Okadaic acid, treatment was given for 24 hrs after 24 hrs of transfection.
The T98G cells transfected with siRNA for 48 hrs were given drug treatments for 24 hrs and were subsequently lysed, and their nuclei were stained using hypotonic propidium iodide buffer. The lysates were analysed for changes in the sub-G0/G1 fraction of fragmented nuclei by flow cytometry (FACS) (FIG. 1B). Condensation and fragmentation of nucleus is a key biochemical feature of apoptosis and sub-G0/G1 analysis has been widely used for detection of apoptosis (FEBS Lett., 1986, 194(2):347-50; Cytometry, 1991, 12(4):323-329; Nature Protocols, 2006, 1:1458-1461).

U87MG glioblastoma cells = experiment: Colony formation assay, U87MG; settings: scrambled or PME-1 siRNA, then drug 2 days; FIG. 5D
Description: (§1) Cells plated in very low density (4-6×10^3) in 6-well plates were allowed to grow for about 7 days until they form small colonies. These cells were then transfected with Scrambled or PME-1 siRNA using Lipofectamine RNAiMAX reagent (Invitrogen) according to the manufacturer's instructions. After 48 hrs, treatments were given with indicated concentration of chemical drugs for another 48 hrs. Cell colonies were washed with PBS, fixed with 3.7% formaldehyde and stained with 0.2% crystal violet solution (made in 10% ethanol) for 15 minutes at room temperature each. Excess stain was removed by repeated washings with PBS. Plates were dried and pictures were taken with Olympus SP-600UZ camera or Epson perfection V700 scanner and analysed with ImageJ.

[1] = system: U251MG glioblastoma cells; experiment: Colony formation assay, U251MG; settings: scrambled or PME-1 siRNA, then drug 2 days; FIG. 5C
Description: as §1

Compound | Potentiation % (apoptotic nuclear fragmentation) (T98G glioblastoma cells; 5 μM drug) | level of apoptosis in PME-1 depleted cells (T98G glioblastoma cells; T98G) | further results
O=C1NC(=O)c2c1c1c3ccccc3[nH]c1c1[nH]c3ccccc3c21 [Arcyriaflavin A, 12,13-Dihydro-5H-indolo[2,3-a] pyrrolo[3,4-c] carbazole-5,7(6H)-dione] | 5-10% |  | 
C[C@]12O[C@H](C[C@]1(O)CO)n1c3ccccc3c3c4c(c5c6ccccc6n2c5c31)CNC4=O [CEP-701, (9S,10S,12R)-2,3,9,10,11,12-Hexahydro-10-hydroxy-10-(hydroxymethyl)-9-methyl-9,12-epoxy-1H-diindolo[1,2,3-fg:3′,2′,1′-kl] pyrrolo[3,4-i][1, 6]benzodiazocin-1-one] | 75-80% | levels even higher than STS itself | Potentiation % (apoptotic nuclear fragmentation) (T98G glioblastoma cells; 50 nM drug): 2-5%
Cn1cc(C2=C(c3cn(C4CCN(Cc5ccccn5)CC4)c4ccccc34)C(=O)NC2=O)c2ccccc21 [Enzastaurin, 3-(1-Methyl-1H-indol-3-yl)-4-(1-(1-(2-pyridinylmethyl)-4-piperidinyl)-1H-indol-3-yl)-1H-pyrrole-2,5-dione] | 15-20% |  | 
CCCCCCCCc1ccc(CCC(N)(CO)CO)cc1 [FTY720] |  |  | sensitization to STS mediated apoptosis (T98G glioblastoma cells; T98G): None of these chemical PP2A activators were able to sensitize
Cn1c2ccccc2c2c3c(c4c5ccccc5n(CCC#N)c4c21)CNC3=O [GÖ-6976, 12-(2-Cyanoethyl)-6,7,12,13-tetrahydro-13-methyl-5-oxo-5H-indolo[2,3-a]pyrrolo[3,4-c]carbazole] | 15-20% |  | 
CC1CNCCN1S(=O)(=O)c1cccc2cnccc12 (stereo not drawn) [H7] |  | moderate levels of apoptosis | 
COC(=O)[C@@]1(O)C[C@H]2O[C@]1(C)n1c3ccccc3c3c4c(c5c6ccccc6n2c5c31)C(=O)NC4 [K252a, (9S,10R,12R)-2,3,9,10,11,12-Hexahydro-10-hydroxy-9-methyl-1-oxo-9,12-epoxy-1H-diindolo[1,2,3-fg:3′,2′,1′kl] pyrrolo[3,4-i][1,6] benzodiazocine-10-carboxylic acid methyl ester] | 80-90% | levels even higher than STS itself | cell killing activity with PME-1 depletion (colony formation) (U87MG glioblastoma cells): enhanced the cell killing activity; cell killing activity with PME-1 depletion (colony formation) [1]: enhanced the cell killing activity; Potentiation % (apoptotic nuclear fragmentation) (T98G glioblastoma cells; 500 nM drug): 10-15%
O=C1NCc2c1c1c3ccccc3[nH]c1c1[nH]c3ccccc3c21 [K252c, 6,7,12,13-Tetrahydro-5H-indolo[2,3-a]pyrrolo[3,4-c] carbazol-5-one] | 15-20% |  | 
C=C1[C@@H](O)[C@@H]2O[C@]3(CC[C@H](/C=C/[C@@H](C)[C@@H]4CC(C)=C[C@@]5(O[C@H](C[C@@](C)(O)C(=O)O)CC[C@H]5O)O4)O3)CC[C@H]2O[C@@H]1[C@@H](O)C[C@H](C)[C@H]1O[C@@]2(CCCCO2)CC[C@H]1C [OA, okadaic acid] |  |  | reversal of PME-1 siRNA and STS mediated apoptosis (T98G glioblastoma cells; T98G): sufficient to rescue cells
CO[C@@H]1[C@H](N(C)C(=O)c2ccccc2)C[C@H]2O[C@]1(C)n1c3ccccc3c3c4c(c5c6ccccc6n2c5c31)C(=O)NC4 [PKC412, [9S-(9α,10β,11β, 13α)]-N-(2,3,10, 11,12,13-Hexahydro-10-methoxy-9-methyl-1-oxo-9,13-epoxy-1 H,9H-diindolo [1,2,3-gh:3′,2′,1′-lm]pyrrolo[3,4-j][1,7]benzodiazonin-11-yl)-N-methyl benzamide] | 75-80% | levels even higher than STS itself | cell killing activity with PME-1 depletion (colony formation) (U87MG glioblastoma cells): enhanced the cell killing activity; cell killing activity with PME-1 depletion (colony formation) [1]: enhanced the cell killing activity; Potentiation % (apoptotic nuclear fragmentation) (T98G glioblastoma cells; 500 nM drug): 5-10%
Cn1cc(C2=C(c3cn(CCCSC(=N)N)c4ccccc34)C(=O)NC2=O)c2ccccc21 [RO-31-8220] | 5-10% | not active | 
COC1C(CO)OC(n2c3c(Cl)cccc3c3c4c(c5c6cccc(Cl)c6[nH]c5c32)C(=O)NC4=O)C(O)C1O (stereo not drawn) [Rebeccamycin, 5h-indolo(2,3-a)pyrrolo(3,4-c)carbazole-5,7(6h)-dione,1,11-dichloro-12,13-dihy;dro-12-(4-o-methyl-beta-d-glucopyranosyl)] | 5-10% |  | 
O=C1NC(=O)c2c1c1c3ccccc3n3c1c1c2c2ccccc2n1C1CCC3O1 [SB-218078, 9,10,11,12-Tetrahydro-9,12-epoxy-1H-diindolo [1,2,3-fg:3′,2′,1′-kl] pyrrolo[3,4-i][1,6] benzodiazocine-1,3(2H)-dione] | 25-30% | moderate levels of apoptosis | Potentiation % (apoptotic nuclear fragmentation) (T98G glioblastoma cells; 50 nM drug): 2-5%
CN[C@@H]1C[C@H]2O[C@@](C)([C@@H]1OC)n1c3ccccc3c3c4c(c5c6ccccc6n2c5c31)C(=O)N[C@@H]4O [UCN-01, (9S)-2,3,10,11,12,13-Hexahydro-3α-hydroxy-10α-methoxy-9-methyl-11α-methyl amino-9β,13β-epoxy-1H,9H-diindolo [1,2,3-gh:3′,2′,1′-lm] pyrrolo[3,4-j][1,7] benzodiazonin-1-one] | 80-90% | levels even higher than STS itself | Potentiation % (apoptotic nuclear fragmentation) (T98G glioblastoma cells; 50 nM drug): 5-10%
O=C(CO)[C@@H](O)[C@H](O)COP(=O)(O)O [Xylulose-5-phosphate] |  |  | sensitization to STS mediated apoptosis (T98G glioblastoma cells; T98G): None of these chemical PP2A activators were able to sensitize
Cbz-Val-Ala-Asp-CH2F |  |  | reversal of PME-1 siRNA and STS mediated apoptosis (T98G glioblastoma cells; T98G): complete reversal
Sodium selenate |  |  | sensitization to STS mediated apoptosis (T98G glioblastoma cells; T98G): None of these chemical PP2A activators were able to sensitize
TRAIL |  |  | synergistic effect of PME-1 depletion / benefit of combination with PME-1 siRNA (T98G glioblastoma cells; PME-1 siRNA versus scrambled siRNA, T98G): did not show the same trend
